Data from US20230055441A1 (NONO INC., priority 2020, published 2023).
Entries after “also recorded” stand apart in the source; their conditions may differ. Read-outs that look alike come from different tables or passages of the source. Square brackets hold non-standard residues; d marks the D form. Ends that are not written are not given here. Peptide text beside a SMILES is read from it.

How the values were obtained:
rt-PA [1] = system: rt-PA
histamine = conditions: rat, in vivo, iv, 7.6 mg/kg
Protocol: Blood samples were collected at 11 timepoints: Pre, 2.5, 5, 10, 15, 30, 60 min, 3 hr, 6 hr, 12 hr and 24 hr. Histamine levels were quantified by using commercially available histamine ELISA assay kit (Histamine ELISA-H1531-K01, Eagle Bioscience). The plates were coated with the plasma samples (50 ul/well) incubated for 60 minutes at room temperature on an orbital shaker with medium frequency. Then 100 ul of enzyme conjugate was added to the wells and incubated for 20 minutes at room temperature. Samples were washed again, and then incubated for 25 minutes at room temperature with TMB solution. The reaction was stopped with 100 ul H2SO4. Absorbance was determined on an ELISA plate reader at 450 nm.
Blood samples were taken at pre-injection and at 0, 1, 2.5, 5, 10, 15, 30- and 60-minutes post dose and used for histamine levels quantification using commercially available kit.

plasmin [2] = molecular target: T1, plasmin (Homo sapiens, UniProt P00747); assay type: in vitro ADME
T1 construct: NA-1 was digested with plasmin

[3] = rat, in vivo, 25 mg/kg
Protocol: (§1) Rats were anaesthetized in the supine position (Isoflurane 1.5-%) and allowed to breath spontaneously in 0.5 L/min 02. The left femoral artery was cannulated for blood sampling.
(§2) Test agents were prepared at the stablish concentration in a total volume of vehicle. Pulmonary instillation was performed by intubation with a 14G catheter connected to a 1 cc syringe and the test agent will be delivered through the catheter. Subcutaneous (SQ or SC) injection was injected into the area of the left flank, no more than 2 ml of total volume per site.
(§3) Each dose was evaluated in 3 rats for each administration strategy. […] For the first experiment, evaluating two different administration routes (SQ and PI), blood samples were collected at 8 different timepoints: Pre and at 7 additional times (1, 2.5, 5, 10, 15, 30, 60 min) post dose (250 ul/sample). For the 24-hour PK curve experiment, blood samples were collected at 11 timepoints: Pre, 2.5, 5, 10, 15, 30, 60 min, 3 hr, 6 hr, 12 hr and 24 hr.
(§4) HPLC quantification: Plasma was separated from blood and stored at −80° C. until used. Each sample was precipitated by adding 1M HCl (10 ul/100 ul sample) at >80° C., centrifuged (12,000 rpm×15 min) and the precipitate collected. A 5 cm C—18 RP-HPLC column was equilibrated with 10% acetonitrile with 0.1% TFA at 40° C., the sample was injected and run in an Agilent 1260 Infinity Quaternary LC System. (30 min at 1.5 mL/min; gradient from 10% to 35% acetonitrile in 0.1% TFA; Absorbance detected at 220 nm). Standard curves for HPLC were generated from plasma samples spiked with known quantities of test agent.

tPA = tPA (Homo sapiens, UniProt P00750)
PSD95PDZ2 = PSD95PDZ2 (Homo sapiens, UniProt P78352); test: Competitive ELISA with biotinylated-NA-1 on coated PSD95PDZ2; assay type: binding; conditions: for EC50 compared among NA-1, D-Tat-L-2B9C and D-NA-1: FIG. 12
Protocol: Binding was evaluated with a competitive ELISA assay. A plate was coated with 1 ug/ml PSD95PDZ2 in 50 mM bicarbonate buffer overnight at 4C. The plate was blocked in 2% BSA in PBST (0.05%) for 2 h at room temperature. […] The wells were washed again, and then incubated with TMB solution for 10 min. The reaction was stopped with 100 ul H2SO4. Absorbance was determined at 450 nm with the synergy H1 reader.

NMDAR2B:PSD-95 complexes = molecular target: T2, NMDAR2B:PSD-95 complexes (Rattus norvegicus, UniProt P31016); test: Dissociation of NMDAR2B:PSD-95 complexes in three pial vessel model (3PVo), immunoprecipitation and Western blotting; assay type: in vivo, Sprague-Dawley rats; conditions: 7.6 mg/kg 1 hr after stroke onset, brains harvested 2 h after onset, rat 3PVo
T2 construct: Cortical stroke areas were collected for analysis; from tissue; host or cells: rat brain, cortical stroke area, after in vivo dosing
Protocol: Sprague-Dawley rats were subject to three pial vessel model (3PVo). […] Brains were harvested 2 h after stroke onsets. Cortical stroke areas were collected for analysis. Immunoprecipitations were performed with anti-PSD-95 or anti-NMDAR2B. The amount of PSD-95 and NMDAR2B in samples was analyzed by Western blotting. Reduction in PSD-95-NMDAR2B complex formation was assessed by fold decrease of placebo versus treatment.

rt-PA [4] = test: Degradation in human plasma in vitro with rt-PA; conditions: given simultaneously with rt-PA (tPA)
[5] = NA-1 plasma levels after administering NA-1 and tPA to rats; set-up: species or system rat; conditions: rats in vivo, rt-PA 5.4 mg/kg, versus NA-1 alone
[6] = system: 3-pial vessel occlusion model of stroke; conditions: for infarct volume: versus placebo
Protocol: Treatments were administered subcutaneously as a bolus injection, 60 minutes after the onset of stroke. […] Data is presented as mean±SD, N=10/group. The asterisk (*) represents statistical significance when compared to Placebo (ANOVA, with a Tukey's post-hoc analysis, *P<0.0332, **P<0.0021, ***P<0.0002 and ****P<0.0001).

rt-PA [7] = test: Degradation in rat plasma in vitro with rt-PA
[8] = system: TNK-tissue plasminogen activator; test: Degradation in human plasma with TNK-tissue plasminogen activator; conditions: given simultaneously with TNK
Text: (§5) The experiment was repeated using TNK-tissue plasminogen activator in place of tPA.

[9] = Pharmacokinetic analysis in rats by route (subcutaneous, pulmonary instillation, intramuscular, intravenous); conditions: rat
Protocol: as §1, §2, §3, §4

[10] = system: TNK-tissue plasminogen activator; test: Degradation in rat plasma with TNK-tissue plasminogen activator; conditions: given simultaneously with TNK
Text: as §5

[11] = Plasma concentrations 15 minutes after subcutaneous dose in rats of the 3-pial vessel occlusion study; assay type: in vivo; conditions: rat, single subcutaneous administration 25, 7.6, 2.5 mg/kg
Protocol: Unlike transient models of stroke in rats where much lower doses are required for neuroprotection, neuroprotection in 3 pial vessel occlusion models of stroke seems to require plasma concentrations of nerinetide at or above 2 ug/mL (or molar equivalent). […] Although the plasma levels continue to increase through about 3 hours then decrease, it is important to achieve rapid accumulation in the blood and brain for emergency indications like stroke. […] For pharmacokinetic sample analysis, calibration standard samples at concentrations of 0, 2.5, 5, 10, 15, 20 and 40 ug/mL of nerinetide were prepared by spiking 1 μL of the appropriate stock to 100 μL of plasma. […] Data is presented as mean±SD.

[12] = 2.6 mg/kg dose; cited from earlier work
[13] = system: embolic MCA occlusion model; test: Embolic MCA occlusion model (eMCAo); assay type: in vivo
plasmin [14] = molecular target: T1, plasmin; assay type: in vitro ADME; remark: listed apart in the source
Text: Plasmin is a serum protease induced by thrombolytic agents, such as tPA. Plasmin cleavage sites can occur on the C-terminal side of basic amino acids residues in a peptide formed of L-amino acids. NA-1 was digested with plasmin and the products analyzed by mass spectrometry. […] However, cleavage at the other two sites may occur to a lesser extent.

[15] = intramuscular versus intravenous
[16] = without tPA, 7.6 mg/kg IV bolus 1 hour after stroke onset

T1 sequence (P00747 581-810 limits assumed, species assumed): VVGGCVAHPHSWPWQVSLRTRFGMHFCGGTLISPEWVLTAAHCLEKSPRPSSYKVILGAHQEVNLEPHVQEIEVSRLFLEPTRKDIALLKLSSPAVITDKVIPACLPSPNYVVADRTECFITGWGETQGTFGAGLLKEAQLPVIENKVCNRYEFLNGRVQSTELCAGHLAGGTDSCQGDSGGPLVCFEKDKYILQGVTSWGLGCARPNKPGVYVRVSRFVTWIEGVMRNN
T1 sequence (P00747 97-580 limits assumed, species assumed): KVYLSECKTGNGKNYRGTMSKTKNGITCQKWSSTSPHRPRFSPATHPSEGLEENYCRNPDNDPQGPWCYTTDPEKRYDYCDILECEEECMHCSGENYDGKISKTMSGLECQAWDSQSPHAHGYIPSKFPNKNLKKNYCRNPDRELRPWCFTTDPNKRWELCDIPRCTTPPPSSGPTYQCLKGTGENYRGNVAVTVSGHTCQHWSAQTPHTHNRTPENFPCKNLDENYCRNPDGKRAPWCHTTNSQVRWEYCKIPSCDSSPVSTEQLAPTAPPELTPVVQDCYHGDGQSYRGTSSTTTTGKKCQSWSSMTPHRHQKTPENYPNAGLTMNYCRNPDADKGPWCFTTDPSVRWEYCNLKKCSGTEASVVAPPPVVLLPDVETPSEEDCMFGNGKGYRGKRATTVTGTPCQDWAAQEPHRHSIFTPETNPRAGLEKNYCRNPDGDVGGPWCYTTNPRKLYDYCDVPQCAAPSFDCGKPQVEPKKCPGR
Sequence of PSD95PDZ2 (P78352 160-246 limits assumed): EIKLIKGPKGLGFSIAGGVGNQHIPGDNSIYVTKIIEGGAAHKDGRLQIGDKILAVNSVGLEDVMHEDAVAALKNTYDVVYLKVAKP
Sequence of tPA (P00750 36-562): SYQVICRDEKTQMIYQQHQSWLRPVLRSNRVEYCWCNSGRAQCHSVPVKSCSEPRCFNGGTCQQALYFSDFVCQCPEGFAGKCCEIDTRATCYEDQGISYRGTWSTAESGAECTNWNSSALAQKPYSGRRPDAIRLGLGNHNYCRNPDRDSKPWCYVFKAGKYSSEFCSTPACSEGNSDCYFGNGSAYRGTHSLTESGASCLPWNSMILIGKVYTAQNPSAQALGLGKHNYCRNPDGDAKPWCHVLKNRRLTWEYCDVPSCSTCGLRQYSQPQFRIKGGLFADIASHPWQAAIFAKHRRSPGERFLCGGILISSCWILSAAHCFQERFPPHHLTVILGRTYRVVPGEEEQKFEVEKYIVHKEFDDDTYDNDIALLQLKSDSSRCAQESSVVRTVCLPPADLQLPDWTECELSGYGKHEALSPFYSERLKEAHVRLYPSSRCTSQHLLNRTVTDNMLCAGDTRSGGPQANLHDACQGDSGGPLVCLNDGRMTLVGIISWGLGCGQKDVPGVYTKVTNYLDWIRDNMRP
T2 sequence (P31016 whole entry, one chain of several): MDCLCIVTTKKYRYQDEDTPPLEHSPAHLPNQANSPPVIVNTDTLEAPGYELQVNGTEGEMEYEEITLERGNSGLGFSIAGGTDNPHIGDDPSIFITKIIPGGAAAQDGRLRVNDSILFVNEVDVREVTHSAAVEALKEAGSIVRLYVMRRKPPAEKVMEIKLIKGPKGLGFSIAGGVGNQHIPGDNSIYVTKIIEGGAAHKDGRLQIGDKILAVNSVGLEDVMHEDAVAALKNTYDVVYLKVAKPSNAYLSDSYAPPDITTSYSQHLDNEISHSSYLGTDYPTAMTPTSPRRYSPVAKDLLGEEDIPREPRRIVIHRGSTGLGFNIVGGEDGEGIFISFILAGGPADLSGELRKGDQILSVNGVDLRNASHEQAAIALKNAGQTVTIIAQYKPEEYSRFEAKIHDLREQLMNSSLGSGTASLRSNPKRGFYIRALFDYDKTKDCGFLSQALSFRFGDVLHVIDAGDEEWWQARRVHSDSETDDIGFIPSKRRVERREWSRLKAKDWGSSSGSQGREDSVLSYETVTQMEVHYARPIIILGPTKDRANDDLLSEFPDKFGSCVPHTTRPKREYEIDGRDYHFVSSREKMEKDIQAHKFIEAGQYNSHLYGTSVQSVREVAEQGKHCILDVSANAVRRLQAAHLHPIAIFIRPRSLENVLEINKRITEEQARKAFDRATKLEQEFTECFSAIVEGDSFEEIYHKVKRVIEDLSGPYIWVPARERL

CC[C@H](C)[C@H](NC(=O)[C@H](CO)NC(=O)[C@H](CO)NC(=O)[C@H](CC(C)C)NC(=O)[C@H](CCCCN)NC(=O)[C@@H](CCCNC(=N)N)NC(=O)[C@@H](CCCNC(=N)N)NC(=O)[C@@H](CCCNC(=N)N)NC(=O)[C@@H](CCC(N)=O)NC(=O)[C@@H](CCCNC(=N)N)NC(=O)[C@@H](CCCNC(=N)N)NC(=O)[C@@H](CCCCN)NC(=O)[C@@H](CCCCN)NC(=O)[C@@H](CCCNC(=N)N)NC(=O)CNC(=O)[C@H](N)Cc1ccc(O)cc1)C(=O)N[C@@H](CCC(=O)O)C(=O)N[C@@H](CO)C(=O)N[C@@H](CC(=O)O)C(=O)N[C@H](C(=O)O)C(C)C [D-TAT-L-2B9c] (H-[dY]G[dR][dK][dK][dR][dR][dQ][dR][dR][dR]KLSSIESDV-OH; N-terminus and C-terminus assumed)
peptide content / degradation in human plasma with rt-PA (rt-PA [1]): resistant to proteolysis
histamine release (histamine): did result in significant histamine release
degradation by plasmin in PBS (plasmin [2]): resistant to plasmin cleavage
AUC / plasma exposure, subcutaneous [3]: also increased Cmax and AUC relative to subcutaneous NA-1 but not to the same extent
Cmax, subcutaneous [3]: also increased Cmax and AUC relative to subcutaneous NA-1 but not to the same extent
degradation by tPA or TNK in PBS without plasma (tPA): no degradation
IC50 (PSD95PDZ2): < 5 µM
EC50 compared among NA-1, D-Tat-L-2B9C and D-NA-1 (PSD95PDZ2): about the same within experimental error

YGRKKRRQRRRKLSSIESDV [NA-1]
dissociation of preformed NMDAR2B:PSD-95 complexes (NMDAR2B:PSD-95 complexes): able to dissociate preformed NMDAR2B:PSD-95 complexes
peptide content / degradation in human plasma with rt-PA (rt-PA [4]): decayed much more rapidly when tPA was co-administered; also recorded: significantly reduced
degradation by plasmin in PBS (plasmin [2]): rapidly degraded
AUC when administered simultaneously with rt-PA [5]: significantly reduced
Cmax when administered simultaneously with rt-PA [5]: significantly reduced
infarct volume ([6]; 7.6 mg/kg subcutaneous bolus 60 minutes after onset of stroke): failed to achieved infarct volume reduction
infarct volume ([6]; 25 mg/kg subcutaneous bolus 60 minutes after onset of stroke): significant reduction in infarct volume
plasma concentration required for neuroprotection ([6]; rat, in vivo): ≥ 2 µg/mL
peptide content / degradation in rat plasma with rt-PA (rt-PA [7]; given simultaneously with rt-PA (tPA)): decayed much more rapidly when tPA was co-administered; also recorded: significantly reduced
time to decay to zero with tPA (rt-PA [7]; treated with tPA): ≤ 15 min
peptide content / degradation in human plasma with TNK [8]: rapid degradation; also recorded: reduced
AUC, intramuscular [9, 15]: somewhat higher AUC
Cmax, intramuscular [9, 15]: lower CMax
half-life, intramuscular [9, 15]: higher half-life
half-life, subcutaneous ([9]; subcutaneous versus same dose intravenous NA-1): longer half-life
Cmax, subcutaneous ([9]; subcutaneous, 25 mg/kg (Table 4), NA-1 versus IV NA-1, others versus subcutaneous NA-1): much lower CMax
AUC / plasma exposure, subcutaneous ([9]; subcutaneous, 25 mg/kg (Table 4), NA-1 versus IV NA-1, others versus subcutaneous NA-1, 25 mg/kg): somewhat lower AUC
peptide content / degradation in rat plasma with TNK [10]: rapid degradation; also recorded: reduced
dose proportionality between treatment dose and Cmax [11]: dose proportionality
effective plasma concentration in human studies [12]: ~10 µg/mL
infarction volume ([13]; tPA co-administered (rt-PA 5.4 mg/kg), 7.6 mg/kg IV 1 hour after stroke onset): reducing its effect
infarction volume [13, 16]: significantly reduced infarction volume and right hemisphere swelling
right hemisphere swelling [13, 16]: significantly reduced infarction volume and right hemisphere swelling
plasmin cleavage sites (plasmin [14]): cleavage at seven of nine potential sites
EC50 compared among NA-1, D-Tat-L-2B9C and D-NA-1 (PSD95PDZ2): about the same within experimental error
binding to PSD-95 PDZ2 domain (PSD95PDZ2; competitive ELISA): high binding affinity
